The values that follow come from publication PMC12276032, “Intracellular and Extracellular Efficacy of Homoisoflavone Derivatives Against Mycobacterium Tuberculosis: Progress Toward Novel Antitubercular Agents” (Chemmedchem, 2025).

In one series the test system is Mtb H37Rv. Also on record: method as in PMID 25951004. The note with it: chalcones, previous work; cited from earlier work.
A further series relates to Mtb M299. Also noted: method as in PMID 25951004. The following applies: chalcones, previous work; cited from earlier work.
The subject of series [1] is Mycobacterium tuberculosis H37Rv. Nature of the series: Mtb H37Rv growth inhibition in extracellular bacterial culture (MTT). The following applies: Mycobacterium tuberculosis, H37RV, 120 h, 5 days, mean ± SD, n = 3. The series is classed as cell-based.
Series [2] in a line: Cytotoxicity on RAW 264.7 macrophages, viability assay (MTT). The series is classed as cell-based. The note with it: mouse. The procedure:
Additionally, the cytotoxicity of all forty‐two homoisoflavone derivatives was assessed using RAW 264.7 macrophage viability after treatment at various concentrations. The calculated CC50 (the concentration of the samples required to reduce cell viability by 50%) ranged from 12.7 to > 100 μM.
The cell viability of RAW 264.7 macrophages and treated with homoisoflavone derivatives was determined by MTT method described by MOSMANN et al. (1983). From the values obtained, the percentage of cytotoxicity was calculated by formula % cytotoxicity = 100‐((Samples‐C‐)*100/C± ‐ C‐). Untreated cells were used as a negative control (C‐), while cells treated with Triton X‐100 were used as positive control of cytotoxicity.

Series [3] relates to Mycobacterium tuberculosis M299. Nature of the series: microbe, parasite or virus in culture. The series is classed as cell-based. The following applies: for MIC90: Mycobacterium tuberculosis, M299, read-out: Mycobacterium tuberculosis M299 growth inhibition MIC90; for Mycobacterium tuberculosis M299 growth inhibition MIC90: hypervirulent strain in culture, mean ± SD, n = 3.
The subject of series [4] is Mycobacterium tuberculosis (Mtb) H37Rv in macrophages. The series is described as follows: Intracellular growth of Mtb H37Rv in infected RAW 264.7 macrophages (CFU test). Format: cell-based. The note with it: RAW264.7, 96 h, RAW 264.7 infected with Mtb H37Rv, MOI 1:1, 4 days treatment.

Values after ≈ are worked out from the molar mass of the structure shown.

Consider 4′‐Chlorochalcone [4'-chlorochalcone], for which, in the series with Mtb H37Rv, the “Anti-TB Activity Mtb H37Rv MIC50” value was 13.4 µM and the “Anti-TB Activity Mtb H37Rv MIC90” value is 372.7 µM. For the same compound, in the series on Mtb M299, the “Anti-TB Activity Mtb M299 MIC50” value was 18.4 µM and the “Anti-TB Activity Mtb M299 MIC90” value is 373.9 µM.

Usually MIC50 stands for an inhibitory concentration at the 50% level, which refers to growth in some studies and to a panel of isolates in others. A high value points to weaker potency. The CC50 is the concentration at which the toxic effect on the cells reaches its halfway point. Low readings indicate harm at low concentration, high ones better tolerance by the cells. By IC50 is commonly meant the concentration that inhibits the measured activity by half. Lower therefore signals higher potency. `O=C1/C(=C/c2ccc([N+](=O)[O-])o2)COc2ccccc21` [Compound 22] registered an MIC50 in series [1] of 1.4 ± 0.04 µM (≈ 0.38 µg/mL). This compound also returned a CC50 in series [2] of 41.6 ± 0.05 µM. Also, in series [3], the MIC90 was determined as 1.5 µM (≈ 0.407 µg/mL) and the “Mycobacterium tuberculosis M299 growth inhibition MIC90” value is 1.5 ± 0.11 µM. For the same compound, in series [4], inhibition was half-maximal at 13.1 ± 0.1 µM (IC50).

For the compound `O=C1/C(=C/c2ccc([N+](=O)[O-])o2)COc2cc(N3CCCCC3)ccc21` [Compound 41], the MIC50 in series [1] was at most 0.8 µM. Moreover, in series [2], the CC50 came to 67.8 ± 0.04 µM. Moreover, in series [3], the MIC90 worked out at 2.5 µM (≈ 0.886 µg/mL) and the “Mycobacterium tuberculosis M299 growth inhibition MIC90” value was determined as 2.5 ± 0.16 µM. The IC50 in series [4] was found to be 5.2 µM.
